Values of other authors as cited in patent US11071785B2, “Liquid formulation of long-lasting protein conjugate comprising the oxyntomodulin and an immunoglobulin Fc region” (HANMI PHARM, CO., LTD, priority 2012, dated 2021).

Columns and labels:
[1] = when administered for 1 year
[2] = in vivo

| Compound | weight reduction effect [1] | side effects reported [2] |
| --- | --- | --- |
| CCCCCCCCCCC[C@@H](C[C@@H]1OC(=O)[C@H]1CCCCCC)OC(=O)[C@H](CC(C)C)NC=O [Orlistat] | about 4 kg | – |
| Cc1c(C(=O)NN2CCCCC2)nn(-c2ccc(Cl)cc2Cl)c1-c1ccc(Cl)cc1 [Rimonabant] | – | disorders of the central nervous system |
| CC(C)CC(N(C)C)C1(c2ccc(Cl)cc2)CCC1 (stereo not shown) [Sibutramine] | – | cardiovascular side effects |
| Contrave | – | cardiovascular side effects |
